Data reported in article PMC6935813, “Assessment of the Aromatase Inhibitory Activity of Ma-Huang-Tang (MHT) and Its Active Compounds” (Evidence-based Complementary and Alternative Medicine : eCAM, 2019).

Assays:
aromatase [1] = target: T1, aromatase (Homo sapiens, UniProt P11511); assay: Cell-free fluorescence-based aromatase inhibition assay (DBF hydrolysis); assay type: biochemical; parameters: purchased Corning (Woburn, MA, USA); settings: DBF substrate
T1 sequence (P11511 1-503): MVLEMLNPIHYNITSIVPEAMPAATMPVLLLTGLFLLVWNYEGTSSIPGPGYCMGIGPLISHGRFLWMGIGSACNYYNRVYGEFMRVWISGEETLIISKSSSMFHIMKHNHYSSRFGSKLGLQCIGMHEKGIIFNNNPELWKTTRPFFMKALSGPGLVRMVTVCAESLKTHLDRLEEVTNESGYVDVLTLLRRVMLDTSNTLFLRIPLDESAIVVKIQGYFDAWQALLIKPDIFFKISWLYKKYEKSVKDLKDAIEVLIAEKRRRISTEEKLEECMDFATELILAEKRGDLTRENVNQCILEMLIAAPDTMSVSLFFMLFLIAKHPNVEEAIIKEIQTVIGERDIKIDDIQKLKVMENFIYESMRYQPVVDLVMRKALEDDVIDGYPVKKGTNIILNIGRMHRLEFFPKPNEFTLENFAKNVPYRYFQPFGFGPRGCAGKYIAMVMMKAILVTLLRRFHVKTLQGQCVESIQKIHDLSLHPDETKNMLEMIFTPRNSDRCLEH
Protocol: Supersomes human CYP19 was obtained from Corning (Woburn, MA, USA). Analytical-grade acetonitrile, methanol, and ultrapure water were purchased from J. T. Baker (Phillipsburg, NJ, USA). Trifluoroacetic acid was of analytical grade and was purchased from Sigma-Aldrich.
The inhibition of aromatase activity by MHT and each component was assessed by measuring the fluorescence intensity of fluorescein produced by the hydrolysis of DBF [20, 28]. […] A 100 μL mixture of aromatase and substrate (2 μM DBF, 40 pmol/mL aromatase, and 4 mg/mL albumin in 50 mM potassium phosphate, pH 7.4) was then added to the sample, and the resulting mixture was incubated for 30 min at 37°C in the dark. After the reaction, the sample was incubated with 150 μL of 2N NaOH for an additional 2 h at 37°C to remove impurities other than fluorescein. […] All experiments were performed three times at separate times.
The results are expressed as the means ± SEMs from multiple experiments. Paired Student's t-tests with Tukey's multiple comparison tests were performed to compare two groups using PRISM software (GraphPad, CA, USA). A p value <0.05 was considered to be statistically significant. Additionally, IC50 values were calculated by sigmoidal dose-response curve fitting (variable slope) using PRISM software.

aromatase [2] = target: T1, aromatase; assay: Cell-based aromatase assay: estrone ELISA in KGN cells given androstenedione; settings: estrone level by ELISA; maximum con. 5 mM; read-out: Aromatase inhibition IC50 in KGN cells
Protocol: The human granulosa-like tumor cell line KGN was obtained from RIKEN BioResource Center (Ibaraki, JPN). The cells were grown in Dulbecco's modified Eagle's medium/Ham's F-12 nutrient mix (DMEM/F-12, Welgen, Daejeon, KOR) supplemented with 5% (v/v) fetal bovine serum (FBS) and 0.5% antibiotics (100 U/mL penicillin and 100 μg/mL streptomycin, Gibco BRL, NY, USA) in a humidified atmosphere of 5% CO2 at 37°C. Prior to treatment with MHT and its components in all the experiments, the cells were cultured for 24 h by switching to phenol-red free DMEM/H-12 medium (Welgen, Daejeon, KOR) with 5% (v/v) charcoal-stripped FBS (HyClone, Logan, UT, USA), and the samples were treated under the same conditions.
Cells (4 × 10^4 cells/mL) were placed on a 96-well tissue culture plate and incubated in DMEM/F-12 medium with 5% charcoal-stripped FBS (HyClone, Logan, UT, USA) overnight. After the addition of MHT or its components, the cells were incubated for 24 h. […] The estrone concentration in each of the samples was measured at 450 nm using a Synergy/HTX multimode reader (Bio-Tek Instruments Inc., VT, USA) with an estrone ELISA kit (Abnova, CA, USA), and the cell viability was measured using a CCK-8 assay (Dojindo Laboratories, Tokyo, JPN).
Additionally, IC50 values were calculated by sigmoidal dose-response curve fitting (variable slope) using PRISM software.

SMILES | IC50 (aromatase [1]; maximum con. 10 mM) | IC50 (aromatase [1]; human CYP19 Supersomes) | IC50 (aromatase [2])
O=C/C=C/c1ccccc1 [Cinnamaldehyde (4), cinnamaldehyde] | > 10000 µM |  | 
CN[C@@H](C)[C@H](O)c1ccccc1 [Ephedrine (1), ephedrine] | > 10000 µM |  | 
CC1(C)[C@@H](O[C@H]2O[C@H](C(=O)O)[C@@H](O)[C@H](O)[C@H]2O[C@@H]2O[C@H](C(=O)O)[C@@H](O)[C@H](O)[C@H]2O)CC[C@]2(C)[C@H]3C(=O)C=C4[C@@H]5C[C@@](C)(C(=O)O)CC[C@]5(C)CC[C@@]4(C)[C@]3(C)CC[C@@H]12 [Glycyrrhizin (8), glycyrrhizin] | > 10000 µM |  | 
O=C(O)/C=C/c1ccccc1 [Cinnamic acid (3), cinnamic acid] | > 10000 µM |  | 
O=c1ccc2ccccc2o1 [Coumarin (2), coumarin] | > 10000 µM |  | 
O=C1C[C@@H](c2ccc(O[C@@H]3O[C@H](CO)[C@@H](O)[C@H](O)[C@H]3O)cc2)Oc2cc(O)ccc21 [Liquiritin (5), liquiritin] |  | 530 µM | 
O=C1CC(c2ccc(O)cc2)Oc2cc(O)ccc21 (centres unmarked) [Liquiritigenin (7), liquiritigenin] | 1610 µM |  | 1410 µM
